What was measured:
Experiment in all cases: relative viability (nuclei count vs DMSO), 5 days (fraction); higher = more cells survive
Sunitinib + OSI-027 = compound: CCN(CC)CCNC(=O)c1c(C)[nH]c(/C=C2\C(=O)Nc3ccc(F)cc32)c1C [Sunitinib] + COc1cccc2cc(-c3nc([C@H]4CC[C@H](C(=O)O)CC4)n4ncnc(N)c34)[nH]c12 [OSI-027] (partner 0.5 µM)
Outline: (§1)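 Relative viability equals treated-well nuclei counts divided by vehicle-well nuclei counts. Counts came from 4× images of lung cancer cell lines grown in 1536-well plates for 5 days after pin-tool dosing on the day after seeding. Dosing used one drug alone or a fixed anchor-drug dose plus five library-drug doses (not always all listed) in √10 steps, and values are medians of duplicate plates.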

Sunitinib + Lapatinib = compound: CCN(CC)CCNC(=O)c1c(C)[nH]c(/C=C2\C(=O)Nc3ccc(F)cc32)c1C [Sunitinib] + CS(=O)(=O)CCNCc1ccc(-c2ccc3ncnc(Nc4ccc(OCc5cccc(F)c5)c(Cl)c4)c3c2)o1 [Lapatinib] (partner 2 µM)
Outline: as §1

Sunitinib + Alpelisib = compound: CCN(CC)CCNC(=O)c1c(C)[nH]c(/C=C2\C(=O)Nc3ccc(F)cc32)c1C [Sunitinib] + Cc1nc(NC(=O)N2CCC[C@H]2C(N)=O)sc1-c1ccnc(C(C)(C)C(F)(F)F)c1 [Alpelisib] (partner 2 µM)
Outline: as §1

Sunitinib + Linsitinib = compound: CCN(CC)CCNC(=O)c1c(C)[nH]c(/C=C2\C(=O)Nc3ccc(F)cc32)c1C [Sunitinib] + C[C@]1(O)C[C@@H](c2nc(-c3ccc4ccc(-c5ccccc5)nc4c3)c3c(N)nccn32)C1 [Linsitinib] (partner 1 µM)
Outline: as §1

Cell Line	relative viability (Sunitinib + OSI-027; first compound 0.02 µM)	relative viability (Sunitinib + OSI-027; first compound 0.06325 µM)	relative viability (Sunitinib + OSI-027; first compound 0.2 µM)	relative viability (Sunitinib + OSI-027; first compound 0.6325 µM)	relative viability (Sunitinib + OSI-027; first compound 2 µM)	relative viability (Sunitinib + Lapatinib; first compound 0.02 µM)	relative viability (Sunitinib + Lapatinib; first compound 0.06325 µM)	relative viability (Sunitinib + Lapatinib; first compound 0.2 µM)	relative viability (Sunitinib + Lapatinib; first compound 2 µM)	relative viability (Sunitinib + Alpelisib; first compound 0.02 µM)	relative viability (Sunitinib + Alpelisib; first compound 0.06325 µM)	relative viability (Sunitinib + Alpelisib; first compound 0.2 µM)	relative viability (Sunitinib + Alpelisib; first compound 0.6325 µM)	relative viability (Sunitinib + Alpelisib; first compound 2 µM)	relative viability (Sunitinib + Linsitinib; first compound 0.02 µM)	relative viability (Sunitinib + Linsitinib; first compound 0.06325 µM)	relative viability (Sunitinib + Linsitinib; first compound 0.2 µM)	relative viability (Sunitinib + Linsitinib; first compound 0.6325 µM)	relative viability (Sunitinib + Linsitinib; first compound 2 µM)	relative viability (Sunitinib + Lapatinib; first compound 0.6325 µM)
HCC-366	0.895	0.862	1.1	0.904	0.636	1.04	1.17	1.33	1.07	0.353	0.466	0.656	0.528	0.431	0.512	0.619	0.606	0.628	0.571	
HCC-827	0.743	0.709		0.76	0.826	0.191	0.198	0.198	0.215	1.02	1.04	1.01	1.04	0.887	0.971	0.887	0.98	1	0.936	0.222
HOP-62	0.763	1.01		0.977	0.995	0.961	1.09	1.01	1.1	0.964	0.851	1.04	1.05	0.919	0.968	1.23	1.18	1.1	1.11	1.01
IA-LM						0.674	0.917	0.804	0.947	0.645	0.812	0.773	0.919	0.87	0.558	0.719		0.561	0.94	0.81
LC-2-ad		0.844	0.944	0.818	0.614	0.916	1.11	1.07	0.581	0.897	0.613		0.891	0.605	0.839	0.918	0.89	0.844	0.677	0.904
LCLC-97TM1	0.553	0.59	0.598	0.48	0.473	1.06	0.81			0.24	0.351		0.276	0.286	0.176	0.197		0.213	0.191	0.924
LCLC-103H	0.373	0.477	0.467	0.397	0.456					0.822	0.945	0.993	0.958	0.959	0.987	1.02	1.11	1.1	1.08	
LK-2	0.175	0.257	0.189	0.2	0.194	0.773		1.15	0.866	0.942	0.906	1.28	1.18	0.916	0.504	0.516	0.658	0.712	0.637	0.939
LOU-NH91	0.778	0.74	0.772	0.73	0.742	0.732	0.839	0.828	0.764		0.71	0.76	0.752	0.652		0.983	0.959	0.95	0.87	0.816

From the supplement of paper PMC10307832
